Key:
[1] = test system: Human Gingival Fibroblasts; assay: PGE2 release from LPS exposed Human Gingival Fibroblasts; assay type: cell-based; settings: for PGE2 Response (with LPS): media only without LPS = 100
Procedure: To further evaluate anti-inflammatory activity of IPMP in the oral cavity, a similar experiment was conducted on Human Gingival Fibroblasts. Cells were exposed to LPS as well as three non-irritating doses of IPMP (see example 1).
Another further experiment with IPMP and zinc chloride was conducted on Human Gingival Fibroblasts.

[2] = test system: LPS stimulated Raw 264.7 Macrophage cells
Procedure: Anti-inflammatory activity was assessed on classical inflammation model LPS stimulated Raw 264.7 Macrophage cells. Inflammation response was quantified by measurements of the release of Prostaglandin E2 (PGE2) from the cells. Cells were exposed to E.coli lipopolysaccharide (LPS) with or without IPMP for 24 hours prior to assay. […] All values were normalized to cell viability of same sample, then to the inflammatory response of the cells without the addition of agents or LPS (100%).

SMILES	PGE2 Response (with LPS) ([1]; 2 μM IPMP) [%]	PGE2 Response (with LPS) ([1]; 10 μM IPMP) [%]	PGE2 Response (with LPS) ([1]; 50 μM IPMP) [%]	Suppression of LPS induced inflammation ([1]; 2, 10, 50 μM IPMP, with LPS)	Cell death / cell proliferation at nonirritative dose [2]	Irritation of cells by IPMP by itself [2]	PGE2 Response (without LPS) ([2]; 50 μM IPMP, 24 hours, no LPS, normalized to cell viability and to cells without agents or LPS (100%)) [%]	PGE2 Response (with LPS) ([2]; 50 μM IPMP, E.coli LPS, 24 hours, normalized to cell viability and to cells without agents or LPS (100%)) [%]	PGE2 Response (with LPS) ([1]; 55 μM Zinc Chloride) [%]
Cc1cc(O)ccc1C(C)C [IPMP, 4-isopropyl-3-methylphenol]	146 ± 46.6	127 ± 21.6	103 ± 13.3	suppresses LPS induced inflammation in a dose-dependent manner	neither cause cell death nor affect cell proliferation	did not irritate the cells	101 ± 0.0	141 ± 6.4	
[Cl-].[Cl-].[Zn+2] [Zinc Chloride, zinc chloride, reference compound]									171 ± 2.9

Source: patent US20120034312A1, “4-ISOPROPYL-3-METHYLPHENOL FOR THE TREATMENT OF INFLAMMATION” (Glaxo Group Limited, priority 2009, published 2012)
